# Source: US9828385B2, “Spiro-oxazolones” (Hoffmann-La Roche Inc., priority 2014, dated 2017)
# Molecular target: T1, human V1a receptor (Homo sapiens, UniProt P37288)
# T1 construct: expressed in transfected cells; host or cells: HEK293 cells, transiently transfected; cell membranes
# Assay: human V1a receptor binding studies (3H-Vasopressin, SPA beads)
# Settings: membranes of HEK293 cells transiently transfected with human V1a receptor, Ki by Cheng-Prussoff from IC50, read-out: pKi hV1a (converted)
# Protocol: The human V1a receptor was cloned by RT-PCR from total human liver RNA. The coding sequence was subcloned in an expression vector after sequencing to confirm the identity of the amplified sequence. […] Cell membranes were prepared from HEK293 cells transiently transfected with the expression vector and grown in 20 liter fermenters with the following protocol.
# 50 g of cells are re-suspended in 30 ml freshly prepared ice cold Lysis buffer (50 mM HEPES, 1 mM EDTA, 10 mM MgCl2 adjusted to pH=7.4+complete cocktail of protease inhibitor (Roche Diagnostics)). Homogenized with Polytron for 1 min and sonicated on ice for 2×2 minutes at 80% intensity (Vibracell sonicator). The preparation is centrifuged 20 min at 500 g at 4° C., the pellet is discarded and the supernatant centrifuged 1 hour at 43′000 g at 4° C. (19′000 rpm). The pellet is re-suspended in 12.5 ml Lysis buffer+12.5 ml Sucrose 20% and homogenized using a Polytron for 1-2 min. The protein concentration is determined by the Bradford method and aliquots are stored at −80° C. until use. For binding studies 60 mg Yttrium silicate SPA beads (Amersham) are mixed with an aliquot of membrane in binding buffer (50 mM Tris, 120 mM NaCl, 5 mM KCl, 2 mM CaCl2, 10 mM MgCl2) for 15 minutes with mixing. 50 μl of bead/membrane mixture is then added to each well of a 96 well plate, followed by 50 μl of 4 nM 3H-Vasopressin (American Radiolabeled Chemicals). For total binding measurement 100 μl of binding buffer are added to the respective wells, for non-specific binding 100 μl of […] cold vasopressin and for compound testing 100 μl of a serial dilution of each compound in 2% DMSO. The plate is incubated 1 h at room temperature, centrifuged 1 min at 1000 g and counted on a Packard Top-Count. Non-specific binding counts are subtracted from each well and data is normalized to the maximum specific binding set at 100%. To calculate an IC 50 the curve is fitted using a non-linear regression model (XLfit) and the Ki is calculated using the Cheng-Prussoff equation.
# T1 sequence (P37288 whole entry): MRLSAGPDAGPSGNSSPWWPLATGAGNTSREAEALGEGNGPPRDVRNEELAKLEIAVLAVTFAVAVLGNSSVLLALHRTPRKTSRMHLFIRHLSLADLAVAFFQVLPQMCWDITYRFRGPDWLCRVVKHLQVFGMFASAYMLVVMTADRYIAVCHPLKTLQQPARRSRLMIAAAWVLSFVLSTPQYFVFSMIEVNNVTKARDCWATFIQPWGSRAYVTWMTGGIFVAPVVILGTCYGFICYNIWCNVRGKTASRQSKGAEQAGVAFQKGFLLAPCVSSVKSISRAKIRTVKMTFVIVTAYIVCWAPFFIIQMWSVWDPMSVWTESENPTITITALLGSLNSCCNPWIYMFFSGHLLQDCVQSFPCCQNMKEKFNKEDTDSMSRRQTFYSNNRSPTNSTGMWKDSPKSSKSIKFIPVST
row,SMILES,Ki [nM]
1,"O=C1OC2(CCN(C3=NC(=O)C(Cc4ccccc4)O3)CC2)c2ccc(Br)cc21 (stereo not drawn) [Example 32, 1′-(5-Benzyl-4-oxo-4,5-dihydro-1,3-oxazol-2-yl)-5-bromo-3H-spiro[2-benzofuran-1,4′-piperidin]-3-one]",63.1
2,"O=C1N=C(N2CCC3(CC2)OCc2ccccc23)OC12C[C@H]1COC[C@H]1C2 (stereo partly drawn) [Example 144, 2′-(1′H,3H-Spiro[2-benzofuran-1,4′-piperidin]-1′-yl)-3a,4,6,6a-tetrahydro-1H,3H,4′H-spiro[cyclopenta[c]furan-5,5′-[1,3]oxazol]-4′-one]",79.4
3,"CC1(Cc2ccc(Cl)cc2)OC(N2CCC3(CC2)OC(=O)c2ccccc23)=NC1=O (single isomer, unassigned; enantiomer b) [Example 81, 1′-[5-(4-Chlorobenzyl)-5-methyl-4-oxo-4,5-dihydro-1,3-oxazol-2-yl]-3H-spiro[2-benzofuran-1,4′-piperidin]-3-one enantiomer B]",501
4,"CC1(Cc2ccc(Cl)s2)OC(N2CCC3(CC2)OCc2ccccc23)=NC1=O (stereo not drawn) [Example 85, 5-[(5-Chlorothiophen-2-yl)methyl]-5-methyl-2-(1′H,3H-spiro[2-benzofuran-1,4′-piperidin]-1′-yl)-1,3-oxazol-4(5H)-one]",5.01
5,"CCOCC1(C)OC(N2CCC3(CC2)OCc2ccccc23)=NC1=O (single isomer, unassigned; (+)) [Example 96, (+)-5-(Ethoxymethyl)-5-methyl-2-(1′H,3H-spiro[2-benzofuran-1,4′-piperidin]-1′-yl)-1,3-oxazol-4(5H)-one]",251
6,"O=C1N=C(N2CCC3(CC2)OCc2c(F)cccc23)OC1Cc1ccccc1 (stereo not drawn) [Example 24, 5-Benzyl-2-(4-fluoro-1′H,3H-spiro[2-benzofuran-1,4′-piperidin]-1′-yl)-1,3-oxazol-4(5H)-one]",6.31
7,"O=C1N=C(N2CCC3(CC2)OCc2ccccc23)OC12CCN(CC(F)F)CC2 [Example 136, 8-(2,2-Difluoroethyl)-2-(1′H,3H-spiro[2-benzofuran-1,4′-piperidin]-1′-yl)-1-oxa-3,8-diazaspiro[4.5]dec-2-en-4-one]",316
8,"CC1(Cc2ccc(Cl)cc2)OC(N2CCC3(CC2)OC(=O)c2ccccc23)=NC1=O (single isomer, unassigned; enantiomer a) [Example 80, 1′-[5-(4-Chlorobenzyl)-5-methyl-4-oxo-4,5-dihydro-1,3-oxazol-2-yl]-3H-spiro[2-benzofuran-1,4′-piperidin]-3-one enantiomer A]",20
9,"O=C1N=C(N2CCC3(CC2)OCc2ncccc23)OC1Cc1ccccc1 (stereo not drawn) [Example 28, 5-Benzyl-2-(1′H,7H-spiro[furo[3,4-b]pyridine-5,4′-piperidin]-1′-yl)-1,3-oxazol-4(5H)-one]",79.4
10,"O=C1N=C(N2CCC3(CC2)OCc2ccccc23)OC1(Cc1ccc(Cl)cc1)Cc1ccc(Cl)cc1 [Example 94, 5,5-bis(4-Chlorobenzyl)-2-(1′H,3H-spiro[2-benzofuran-1,4′-piperidin]-1′-yl)-1,3-oxazol-4(5H)-one]",1
11,"O=C1OC2(CCN(C3=NC(=O)C(Cc4ccccc4)O3)CC2)c2ccccc21 (single isomer, unassigned; enantiomer a) [Example 20, 1′-[5-Benzyl-4-oxo-4,5-dihydro-1,3-oxazol-2-yl]-3H-spiro[2-benzofuran-1,4′-piperidin]-3-one enantiomer A]",251
12,"CCCCC1(C)OC(N2CCC3(CC2)OC(=O)c2ccccc23)=NC1=O (stereo not drawn) [Example 69, 1′-(5-Butyl-5-methyl-4-oxo-4,5-dihydro-1,3-oxazol-2-yl)-3H-spiro[2-benzofuran-1,4′-piperidin]-3-one]",316
13,"O=C1N=C(N2CCC3(CC2)OCc2ccccc23)OC1C(F)c1ccc(Cl)cc1 (single isomer, unassigned) [Example 46, 5-((4-Chlorophenyl)fluoromethyl)-2-(1′H,3H-spiro[2-benzofuran-1,4′-piperidin]-1′-yl)-1,3-oxazol-4(5H)-one diastereomer a, enantiomer A]",31.6
14,"CC(c1ccccc1)C1(C)OC(N2CCC3(CC2)OCc2ccccc23)=NC1=O (single isomer, unassigned; diastereomer b) [Example 107, 5-Methyl-5-(1-phenylethyl)-2-(1′H,3H-spiro[2-benzofuran-1,4′-piperidin]-1′-yl)-1,3-oxazol-4(5H)-one diastereomer b]",10
15,"CC1(CC2CCCOC2)OC(N2CCC3(CC2)OCc2ccccc23)=NC1=O (single isomer, unassigned; diastereomer a) [Example 103, (−)-5-Methyl-2-(1′H,3H-spiro[2-benzofuran-1,4′-piperidin]-1′-yl)-5-(tetrahydro-2H-pyran-3-ylmethyl)-1,3-oxazol-4(5H)-one diastereomer a]",10
16,"O=C1N=C(N2CCC3(CC2)OCc2ccccc23)OC12CCSCC2 [Example 132, 2-(1′H,3H-Spiro[2-benzofuran-1,4′-piperidin]-1′-yl)-1-oxa-8-thia-3-azaspiro[4.5]dec-2-en-4-one]",15.8
17,"CO[C@H]1CC2(C[C@H]1OC)OC(N1CCC3(CC1)OCc1ccccc13)=NC2=O (single isomer, unassigned; diastereomer a) [Example 122, 7,8-Dimethoxy-2-(1′H,3H-spiro[2-benzofuran-1,4′-piperidin]-1′-yl)-1-oxa-3-azaspiro[4.4]non-2-en-4-one diastereomer a]",200
18,"C=CCC1(CC(=C)CO[Si](C)(C)C(C)(C)C)OC(N2CCC3(CC2)OCc2ccccc23)=NC1=O (stereo not drawn) [Example 65, 5-[2-({[tert-Butyl(dimethyl)silyl]oxy}methyl)prop-2-en-1-yl]-5-(prop-2-en-1-yl)-2-(1′H,3H-spiro[2-benzofuran-1,4′-piperidin]-1′-yl)-1,3-oxazol-4(5H)-one]",63.1
19,"O=C1OC2(CCN(C3=NC(=O)C(CC4CCCC4)O3)CC2)c2ccccc21 (single isomer, unassigned; enantiomer b) [Example 16, 1′-[5-(Cyclopentylmethyl)-4-oxo-4,5-dihydro-1,3-oxazol-2-yl]-3H-spiro[2-benzofuran-1,4′-piperidin]-3-one enantiomer B]",12.6
20,"CC1(Cc2ccc(Cl)cc2)OC(N2CCC3(CC2)OCc2ccccc23)=NC1=O (stereo not drawn) [Example 75, 5-(4-Chlorobenzyl)-5-methyl-2-(1′H,3H-spiro[2-benzofuran-1,4′-piperidin]-1′-yl)-1,3-oxazol-4(5H)-one]",3.98
21,"CC1(Cc2ccccc2)OC(N2CCC3(CC2)OC(=O)c2ccccc23)=NC1=O (single isomer, unassigned; enantiomer a) [Example 72, 1′-[5-Benzyl-5-methyl-4-oxo-4,5-dihydro-1,3-oxazol-2-yl]-3H-spiro[2-benzofuran-1,4′-piperidin]-3-one enantiomer A]",25.1
22,"CCCCCC1CCC2(CC1)OC(N1CCC3(CC1)OC(=O)c1ccccc13)=NC2=O (single isomer, unassigned; diastereomer b) [Example 127, 1′-[4-Oxo-8-pentyl-1-oxa-3-azaspiro[4.5]dec-2-en-2-yl]-3H-spiro[2-benzofuran-1,4′-piperidin]-3-one diastereomer b]",251
23,"CC(C)(C)OC(=O)N1Cc2ccccc2CC2(C1)OC(N1CCC3(CC1)OCc1ccccc13)=NC2=O (stereo not drawn) [Example 137, tert-Butyl 4′-oxo-2′-(1′H,3H-spiro[2-benzofuran-1,4′-piperidin]-1′-yl)-1,5-dihydro-4′H-spiro[2-benzazepine-4,5′-[1,3]oxazole]-2(3H)-carboxylate]",1.58
24,"C=CCC1(CC(=C)F)OC(N2CCC3(CC2)OCc2ccccc23)=NC1=O (stereo not drawn) [Example 54, 5-Allyl-5-(2-fluoroallyl)-2-(3H-spiro[isobenzofuran-1,4′-piperidine]-1′-yl)oxazol-4(5H)-one]",631
25,"O=C1N=C(N2CCC3(CC2)OCc2ccccc23)OC1CC1CCCC1 (single isomer, unassigned; enantiomer b) [Example 14, 5-(Cyclopentylmethyl)-2-(1′H,3H-spiro[2-benzofuran-1,4′-piperidin]-1′-yl)-1,3-oxazol-4(5H)-one enantiomer B]",2.51
26,"O=C1OC2(CCN(C3=NC(=O)C(Cc4ccccc4)O3)CC2)c2ccc(F)cc21 (stereo not drawn) [Example 27, 1′-(5-Benzyl-4-oxo-4,5-dihydro-1,3-oxazol-2-yl)-5-fluoro-3H-spiro[2-benzofuran-1,4′-piperidin]-3-one]",15.8
27,"CC#CCC1OC(N2CCC3(CC2)OCc2ccccc23)=NC1=O (stereo not drawn) [Example 11, 5-(But-2-yn-1-yl)-2-(1′H,3H-spiro[2-benzofuran-1,4′-piperidin]-1′-yl)-1,3-oxazol-4(5H)-one]",50.1
